Article PMC2763079 (Molecular Imaging and Biology, 2009)

What was measured:
TSPO [1] = molecular target: T1, TSPO (Rattus norvegicus, UniProt P16257); test: ex vivo biodistribution after PET scan; format: in vivo; conditions: 60 min after tracer injection
TSPO [2] = molecular target: T1, TSPO; test: correlation of specific binding in control rats with [^3H]-PK11195 binding; format: in vivo

T1 sequence (P16257 whole entry): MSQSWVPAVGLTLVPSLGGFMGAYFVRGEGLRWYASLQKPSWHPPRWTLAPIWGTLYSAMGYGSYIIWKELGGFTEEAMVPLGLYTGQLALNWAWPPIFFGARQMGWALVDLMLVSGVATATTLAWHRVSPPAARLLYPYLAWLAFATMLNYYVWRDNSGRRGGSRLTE

SMILES: CC[C@@H](C)N(C)C(=O)c1cc2ccccc2c(-c2ccccc2Cl)n1 [[^11C]-(R)-PK11195, (R)-N-methyl-N-(1-methylpropyl)-1-(2-chlorophenyl)isoquinoline-3-carboxamide]
- Ex vivo biodistribution SUV, bulbus olfactorius (TSPO [1]; HSE rats): 1.59 SUV
- Ex vivo biodistribution SUV, cerebellum (TSPO [1]; HSE rats): 0.88 SUV
- Ex vivo biodistribution SUV, medulla (TSPO [1]; HSE rats): 1.29 SUV
- Ex vivo biodistribution SUV, pons (TSPO [1]; HSE rats): 1.54 SUV
- Ex vivo biodistribution SUV, bulbus olfactorius (TSPO [1]; control rats): 1.20 SUV
- Ex vivo biodistribution SUV, cerebellum (TSPO [1]; control rats): 0.51 SUV
- Ex vivo biodistribution SUV, medulla (TSPO [1]; control rats): 0.61 SUV
- Ex vivo biodistribution SUV, pons (TSPO [1]; control rats): 0.59 SUV
- R, correlation of specific binding in control rats with [^3H]-PK11195 binding (TSPO [2]; Pearson correlation, [^3H]-PK11195 binding from Kurumaji et al. [25]): 0.96
- slope of the linear regression of specific binding vs [^3H]-PK11195 binding (TSPO [2]; control rats): 0.010
